# Data from ChEMBL document CHEMBL1150720, “Inhibition of mitochondrial NADH oxidase, succinoxidase, and ATPase by naturally occurring flavonoids” (J Nat Prod, 1987).
# Active and inactive are the calls of the source. The calls are words filed in the database; no cut-off is given here.
# Assays:
# Bos taurus [1] = species: Bos taurus; experiment: Inhibition of beef heart mitochondrial succinoxidase assessed as specific activity at 0.35 mM preincubated for 15 mins relative to control; design: scale not given: the % may be the effect or the level left
# Rattus norvegicus = species: Rattus norvegicus; experiment: Inhibition of rat liver mitochondrial ATPase assessed as specific activity at 0.42 mM relative to control; design: scale not given: the % may be the effect or the level left
# Bos taurus [2] = species: Bos taurus; experiment: Inhibition of beef heart mitochondrial NADH oxidase assessed as specific activity at 0.35 mM preincubated for 15 mins relative to control; design: scale not given: the % may be the effect or the level left
# [3] = Inhibition of beef heart mitochondrial NADH oxidase assessed per mg of protein; design: species or system Bos taurus; conditions: read-out: I50
# [4] = Inhibition of rat liver mitochondrial ATPase assessed per mg of protein; conditions: read-out: I50
# [5] = Inhibition of beef heart mitochondrial succinoxidase assessed per mg of protein; design: species or system Bos taurus; conditions: read-out: I50
# Bos taurus [6] = species: Bos taurus; experiment: Inhibition of beef heart mitochondrial NADH oxidase assessed as complete enzyme inhibition at 100 nmol/mg
compound,measurement,setting,value
COc1ccc(-c2cc(=O)c3c(O)cc(O)cc3o2)cc1,Activity,Bos taurus [1],99.3%
same,Activity,Rattus norvegicus,98.7%
same,Activity,Bos taurus [2],88.6%
COc1ccc(-c2oc3cc(O)cc(O)c3c(=O)c2O)cc1,Activity,Bos taurus [1],98.7%
same,Activity,Rattus norvegicus,96.1%
same,Activity,Bos taurus [2],70.6%
COc1ccccc1-c1cc(=O)c2c(OC)cccc2o1,Activity,Bos taurus [1],80.8%
same,Activity,Rattus norvegicus,77.3%
same,Activity,Bos taurus [2],86.9%
O=c1c(O)c(-c2ccc(O)cc2)oc2cc(O)cc(O)c12,Activity,Bos taurus [1],84.4%
same,Activity,Rattus norvegicus,94.2%
same,Activity,Bos taurus [2],59.3%
O=c1cc(-c2ccccc2)oc2cccc(O)c12 [5-HYDROXYFLAVONE],Activity,Bos taurus [1],95.7%
same,Activity,Rattus norvegicus,98.9%
same,Activity,Bos taurus [2],14.6%
same,IC50,[3],425 nmol/mg
O=c1cc(-c2ccccc2)oc2cc(O)ccc12 [7-HYDROXYFLAVONE],Activity,Bos taurus [1],91.3%
same,Activity,Rattus norvegicus,95.1%
same,Activity,Bos taurus [2],54.2%
same,IC50,[3],1400 nmol/mg
O=C1c2c(O)cc(O)cc2O[C@H](c2ccc(O)c(O)c2)[C@H]1O [(+)-TAXIFOLIN],IC50,[3],1040 nmol/mg
O=c1cc(-c2ccc(O)cc2)oc2cc(O)cc(O)c12 [APIGENIN],Activity,Bos taurus [1],93.8%
same,Activity,Rattus norvegicus,84.6%
same,Activity,Bos taurus [2],12.9%
same,IC50,[3],920 nmol/mg
O=c1cc(-c2ccccc2)oc2cc(O)cc(O)c12 [CHRYSIN],Activity,Bos taurus [1],75.8%
same,Activity,Rattus norvegicus,77.7%
same,Activity,Bos taurus [2],11.2%
same,IC50,[3],250 nmol/mg
O=c1c(O)c(-c2ccc(O)c(O)c2)oc2cc(O)ccc12 [FISETIN],Activity,Bos taurus [1],9.6%
same,IC50,[4],480 nmol/mg
same,Activity,Rattus norvegicus,17.2%
same,IC50,[5],45 nmol/mg
same,Activity,Bos taurus [6],Active
same,Activity,Bos taurus [2],8.3%
same,IC50,[3],15 nmol/mg
O=C1CC(c2ccccc2)Oc2ccccc21 (centres undefined) [FLAVANONE],Activity,Bos taurus [1],84.8%
same,Activity,Rattus norvegicus,73.4%
same,Activity,Bos taurus [2],6.5%
same,IC50,[3],310 nmol/mg
O=c1cc(-c2ccccc2)oc2ccccc12 [FLAVONE],Activity,Bos taurus [1],82%
same,Activity,Rattus norvegicus,67.4%
same,Activity,Bos taurus [2],14.5%
same,IC50,[3],240 nmol/mg
O=C1c2ccc(O)cc2O[C@H](c2ccc(O)c(O)c2)[C@H]1O [FUSTIN],IC50,[3],671 nmol/mg
O=c1c(O)c(-c2ccccc2)oc2cc(O)cc(O)c12 [GALANGIN],Activity,Bos taurus [1],92.4%
same,Activity,Rattus norvegicus,99.9%
same,Activity,Bos taurus [2],48.6%
same,IC50,[3],1670 nmol/mg
O=c1c(-c2ccc(O)cc2)coc2cc(O)cc(O)c12 [GENISTEIN],Activity,Bos taurus [1],98.3%
same,Activity,Rattus norvegicus,69.2%
same,Activity,Bos taurus [2],6.6%
same,IC50,[3],365 nmol/mg
O=c1c(O)c(-c2ccc(O)cc2O)oc2cc(O)cc(O)c12 [MORIN],Activity,Bos taurus [1],31.5%
same,IC50,[4],120 nmol/mg
same,Activity,Rattus norvegicus,13.3%
same,IC50,[5],730 nmol/mg
same,Activity,Bos taurus [2],18%
same,IC50,[3],430 nmol/mg
O=c1c(O)c(-c2cc(O)c(O)c(O)c2)oc2cc(O)cc(O)c12 [MYRICETIN],Activity,Bos taurus [1],14.7%
same,IC50,[4],370 nmol/mg
same,Activity,Rattus norvegicus,8.4%
same,IC50,[5],45 nmol/mg
same,Activity,Bos taurus [2],12%
same,IC50,[3],35 nmol/mg
O=C1C[C@@H](c2ccc(O)cc2)Oc2cc(O)cc(O)c21 [NARINGENIN],Activity,Bos taurus [1],84.8%
same,IC50,[4],1800 nmol/mg
same,Activity,Rattus norvegicus,43.6%
same,Activity,Bos taurus [2],83.9%
O=c1c(O)c(-c2ccc(O)c(O)c2)oc2cc(O)cc(O)c12 [QUERCETIN],Activity,Bos taurus [1],21.8%
same,IC50,[4],205 nmol/mg
same,Activity,Rattus norvegicus,7.1%
same,IC50,[5],715 nmol/mg
same,Activity,Bos taurus [2],6.4%
same,IC50,[3],145 nmol/mg
C[C@@H]1O[C@@H](OC[C@H]2O[C@@H](Oc3c(-c4ccc(O)c(O)c4)oc4cc(O)cc(O)c4c3=O)[C@H](O)[C@@H](O)[C@@H]2O)[C@H](O)[C@H](O)[C@H]1O [RUTIN],Activity,Bos taurus [1],66.7%
same,Activity,Rattus norvegicus,66.5%
same,Activity,Bos taurus [2],49.1%
same,IC50,[3],1890 nmol/mg
